US20240150333A1, “TAF1 INHIBITORS” (H. LEE MOFFITT CANCER CENTER AND RESEARCH INSTITUTE, INC., priority 2020, published 2024)

Assays:
Type in all cases: binding
TAF1-2 (TAF1 BD2) = biological target: T1, TAF1-2 (TAF1 BD2) (Homo sapiens, UniProt P21675); assay: Differential scanning fluorimetry (DSF) thermal shift
T1 construct: BD2 (residues 1501-1635); His6 (TEV-cleavable) (cleaved yes); host or cells: E. coli BL21 (DE3)
T1 sequence (P21675 1501-1635 isoform P21675-1): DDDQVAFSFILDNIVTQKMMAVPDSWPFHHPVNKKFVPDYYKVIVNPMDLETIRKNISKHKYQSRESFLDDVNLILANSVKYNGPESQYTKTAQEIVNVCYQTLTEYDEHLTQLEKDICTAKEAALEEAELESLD

PBRM1(2) = biological target: T2, PBRM1(2) (Homo sapiens, UniProt Q86U86); assay: Bromoscan selectivity profiling (DiscoveRx); conditions: at 20,000 nM
T2 construct: PBRM1(2); purchased DiscoveRx
T2 sequence (Q86U86 177-287 limits assumed): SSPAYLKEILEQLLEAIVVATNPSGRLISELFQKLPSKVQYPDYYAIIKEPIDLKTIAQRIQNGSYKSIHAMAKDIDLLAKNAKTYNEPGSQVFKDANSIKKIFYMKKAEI
Procedure: (§1) qPCR-based BRD binding assay. Another method for the determination of dissociation constants of BRD-ligand complexes is offered by DiscoveRx Corp. The assay is based on competition between test compound and immobilized high-affinity ligand for binding to the KAc site of BRDs. The amount of TAF1 remaining on an immobilized high-affinity ligand in the presence of ligand is measured using a quantitative real-time polymerase chain reaction (qPCR) method that detects the associated DNA label tagged to the BRD.
(§2) Inhibitor selectivity assays To assess target selectivity, compounds with highest biochemical and cellular activities can be profiled against panels of BRDs and kinases using the services of DiscoveRx and/or Reaction biology, as we have done previously.

SMARCA2 = biological target: T3, SMARCA2 (Homo sapiens, UniProt P51531); assay: Bromoscan selectivity profiling (DiscoveRx); conditions: at 20,000 nM
T3 construct: purchased DiscoveRx
T3 sequence (P51531 1378-1506 limits assumed): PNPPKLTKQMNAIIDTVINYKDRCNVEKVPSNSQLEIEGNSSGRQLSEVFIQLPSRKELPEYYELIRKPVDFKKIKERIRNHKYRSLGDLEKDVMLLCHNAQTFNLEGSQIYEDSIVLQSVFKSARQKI
Procedure: as §1, §2

TAF1L(2) = biological target: T4, TAF1L(2) (Homo sapiens, UniProt Q8IZX4); assay: Bromoscan selectivity profiling (DiscoveRx); conditions: at 20,000 nM
T4 construct: purchased DiscoveRx
T4 sequence (Q8IZX4 1517-1626 limits assumed): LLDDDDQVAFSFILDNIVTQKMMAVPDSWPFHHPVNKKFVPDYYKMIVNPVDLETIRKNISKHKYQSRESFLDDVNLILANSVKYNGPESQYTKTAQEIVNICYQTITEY
Procedure: as §1, §2

BRPF3 = biological target: T5, BRPF3 (Homo sapiens, UniProt Q9ULD4); assay: Bromoscan selectivity profiling (DiscoveRx); conditions: at 20,000 nM
T5 construct: purchased DiscoveRx
T5 sequence (Q9ULD4 589-693 limits assumed): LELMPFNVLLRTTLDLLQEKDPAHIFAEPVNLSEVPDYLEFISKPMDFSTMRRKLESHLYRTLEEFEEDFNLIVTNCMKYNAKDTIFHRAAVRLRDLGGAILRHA
Procedure: as §1, §2

SMARCA4 = biological target: T6, SMARCA4 (Homo sapiens, UniProt P51532); assay: Bromoscan selectivity profiling (DiscoveRx); conditions: at 20,000 nM
T6 construct: purchased DiscoveRx
T6 sequence (P51532 1453-1564 limits assumed): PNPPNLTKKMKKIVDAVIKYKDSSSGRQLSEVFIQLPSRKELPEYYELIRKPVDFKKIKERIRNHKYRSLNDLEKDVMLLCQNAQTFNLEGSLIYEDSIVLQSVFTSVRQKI
Procedure: as §1, §2

BRDT(1) = biological target: T7, BRDT(1) (Homo sapiens, UniProt Q58F21); assay: Bromoscan selectivity profiling (DiscoveRx); conditions: at 20,000 nM
T7 construct: BRDT(1); purchased DiscoveRx
Procedure: as §1, §2

BRD4(1) = biological target: T8, BRD4(1) (Homo sapiens, UniProt O60885); assay: Bromoscan selectivity profiling (DiscoveRx); conditions: at 20,000 nM
T8 construct: 32 bromodomains (by DiscoveRx); purchased DiscoveRx (BromoScan service)
Procedure: as §1, §2

BRD7 = biological target: T9, BRD7 (Homo sapiens, UniProt Q9NPI1); assay: Bromoscan selectivity profiling (DiscoveRx); conditions: at 20,000 nM
T9 construct: purchased DiscoveRx
T9 sequence (Q9NPI1 131-235 limits assumed): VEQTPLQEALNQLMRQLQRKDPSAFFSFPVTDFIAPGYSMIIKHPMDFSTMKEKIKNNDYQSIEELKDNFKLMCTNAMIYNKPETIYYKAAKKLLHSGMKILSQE
Procedure: as §1, §2

EP300 = biological target: T10, EP300 (Homo sapiens, UniProt Q09472); assay: Bromoscan selectivity profiling (DiscoveRx); conditions: at 20,000 nM
T10 construct: purchased DiscoveRx
T10 sequence (Q09472 1049-1156 limits assumed): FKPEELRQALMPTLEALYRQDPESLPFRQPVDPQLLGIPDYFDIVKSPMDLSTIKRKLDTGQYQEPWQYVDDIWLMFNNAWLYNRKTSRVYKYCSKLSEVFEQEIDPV
Procedure: as §1, §2

DSF (ΔTm, ° C.) TAF1-2 (TAF1-2 (TAF1 BD2); Table 1 (Example 1)): 2.9 ± 0.2 °C | ΔTm at 100 µM (TAF1-2 (TAF1 BD2); Table 2 (Example 2), 100 μM compound, standard deviation from two experiments): 3.2 °C | DSF (ΔTm, ° C.) TAF1-2 (TAF1-2 (TAF1 BD2); Table 2 (Example 2), 100 μM compound, standard deviation from two experiments, 100 µM): 3.1 ± 0.1 °C | inhibition at 20 µM (PBRM1(2)): 5% | inhibition at 20 µM (SMARCA2): 15% | inhibition at 20 µM (TAF1L(2)): 98% | inhibition at 20 µM (BRPF3): 20% | inhibition at 20 µM (SMARCA4): 7% | inhibition at 20 µM (BRDT(1)): 56% | inhibition at 20 µM (BRD4(1)): 50% | inhibition at 20 µM (BRD7): 14% | inhibition at 20 µM (EP300): 36%
SMILES: C[C@@H]1COCCN1c1cc(C2([S@](C)(=N)=O)CC2)nc(-c2cc[nH]c3nccc2-3)n1 [AZD6738]
